Source: patent US10576060B2, “FK506 derivative maintaining nerve regeneration activity without immunosuppressive activity, and use thereof” (INTRON BIOTECHNOLOGY CO., LTD, priority 2014, dated 2020)
“Also recorded” adds a separate entry of the source.

Experiments:
[1] = system: CD3/CD28-activated human T-cells; assay: In vitro T-cell activity: interleukin-2 secretion by CD3/CD28-activated human T-cells; type: cell-based; details: compound 0.1 nM, 16 to 20 hours
Protocol: A relative immunosuppressive property of the compound compared to authentic FK506 was determined using T-lymphocytes as described in Mo, S. J. et al. (J. Am. Chem. Soc. 2011, 133, 976-985). Simply, interleukin-2 secretions were quantified after treating the compound (0.1 nM) with CD3/CD28-activated human T-cells with the compounds for 16 to 20 hours.
A relative immunosuppressive property of 31-O-demethyl-FK506 compared to authentic FK506 was determined using the same method as Example 3. (1).

[2] = system: rat pheochromocytoma cells (PC12); assay: Nerve regeneration activity: neurite outgrowth in NGF-treated PC12 cells; type: cell-based; details: 10 nM compound with NGF 10 ng/mL, 96 hours
Protocol: A relative nerve regeneration activity of the compound, compared to authentic FK506, was determined using rat pheochromocytoma cells (PC12) by the method described in Mo, S. J. et al. (J. Am. Chem. Soc. 2011, 133, 976-985). The PC12 cells were treated with nerve growth factor (NGF; KOMA Biotech; 10 ng/mL) which induces neurite outgrowth for 96 hours. 10 nM of FK506 or 9-deoxo-prolyl-FK506 was treated together or excluded. The neurite lengths were measured on photographic prints by the method Revill, W. P. et al. described (J. Pharmacol. Exp. Ther. 2002, 302, 1278-1285).
A relative neuroregenerative property of 31-O-demethyl-FK506 compared to authentic FK506 was determined using the same method as Example 3. (2).
A relative nerve regeneration property of 9-deoxo-31-O-demethyl-FK506 compared to authentic FK506 was determined using the same method as Example 3. (2).

Row | Compound | interleukin-2 secretion (immunosuppressive activity) [1] | neurite outgrowth promotion (neurite length) [2]
1 | C=CC[C@@H]1/C=C(\C)C[C@H](C)C[C@H](OC)[C@H]2O[C@@](O)(C(=O)C(=O)N3CCCC[C@H]3C(=O)O[C@H](/C(C)=C/[C@@H]3CC[C@@H](O)[C@H](OC)C3)[C@H](C)[C@@H](O)CC1=O)[C@H](C)C[C@@H]2OC [FK506] | decreased as much as the number of CD3/CD28-inactivated human T-cells | –
2 | C=CC[C@@H]1/C=C(\C)C[C@H](C)C[C@H](OC)[C@H]2O[C@@](O)(CC(=O)N3CCCC[C@H]3C(=O)O[C@H](/C(C)=C/[C@@H]3CC[C@@H](O)[C@H](O)C3)[C@H](C)[C@@H](O)CC1=O)[C@H](C)C[C@@H]2OC [9-deoxo-31-O-demethyl-FK506] | significantly increased to reach that of the normal group; also recorded: increased significantly to reach a normal level | excellent effect on neurite outgrowth promotion; also recorded: promotes neurite outgrowth in PC12 cells
3 | C=CC[C@@H]1/C=C(\C)C[C@H](C)C[C@H](OC)[C@H]2O[C@@](O)(C(=O)C(=O)N3CCCC[C@H]3C(=O)O[C@H](/C(C)=C/[C@@H]3CC[C@@H](O)[C@H](O)C3)[C@H](C)[C@@H](O)CC1=O)[C@H](C)C[C@@H]2OC [31-O-demethyl-FK506] | significantly increased to reach that of the normal group; also recorded: increased significantly to reach a normal level | excellent effect on neurite outgrowth promotion; also recorded: promotes neurite outgrowth in PC12 cells
4 | C=CC[C@@H]1/C=C(\C)C[C@H](C)C[C@H](OC)[C@H]2O[C@@](O)(CC(=O)N3CCC[C@H]3C(=O)O[C@H](/C(C)=C/[C@@H]3CC[C@@H](O)[C@H](OC)C3)[C@H](C)[C@@H](O)CC1=O)[C@H](C)C[C@@H]2OC [9-deoxo-prolyl-FK506] | significantly increased to reach that of the normal group; also recorded: increased significantly to reach a normal level | excellent effect on neurite outgrowth promotion; also recorded: promotes neurite outgrowth in PC12 cells
